Columns and labels:
MC38 colon carcinoma = assay: Subcutaneous MC38 colon carcinoma model, anti-4-1BB and avelumab (Example 3); format: in vivo; conditions: anti-4-1BB 0.1 mg/mL, avelumab 1 mg/mL, 0.2 mL per mouse ip, 3 doses 3 to 4 days apart, C57BL/6 mice
Method: (§1) Six (6)- to 8-week old female C57BL/6 mice were purchased from the Jackson Laboratories. All animals were housed in a pathogen free vivarium facility at Rinat and experiments were conducted according to the protocols in accordance with the Institutional Animal Care and Use Committee (IACUC) guidelines.
(§2) The B16F10 melanoma cell line was purchased from American Type Culture Collection (ATCC). The MC38 colon carcinoma cell line was kindly provided by Dr. Antoni Ribas at University of California, Los Angeles, Calif. Cells were cultured in Dulbecco's Modified Eagle's Medium (DMEM) supplemented with 10% fetal bovine serum (FBS), 2 mM L-glutamine at 37° C. in 5% carbon dioxide (CO2), and IMPACT-tested for pathogens at Research Animal Diagnostic Laboratory (RADIL) (Columbia, Mo.). Pathogen-free cells growing in an exponential growth phase were harvested and used for tumor inoculation.
Therapeutic mouse anti-mouse 4-1BB mAb (mouse immunoglobulin G1 [mIgG1]), derived from the parental clone MAB9371 (R&D Systems), was prepared in-house. Avelumab was provided by Merck Serono. Isotype control mIgG1 (clone: MOPC-21) was purchased from BioXcell. Human IgG1 was prepared in-house. Anti-4-1BB and avelumab were diluted to concentrations of 0.1 mg/mL and 1 mg/mL, respectively, in phosphate buffered saline (PBS) (Life Technologies), and dosed at 0.2 mL per mouse intraperitoneally (ip) for 3 doses 3 to 4 days apart.
(§3) C57BL/6 mice were inoculated subcutaneously at the right flank with 0.2×10^6 B16F10 or 0.5×10^6 MC38 cells in 0.1 mL of serum-free DMEM. When tumors reached target size, mice were randomized into treatment groups. Treatment was started on the same day as randomization. Tumor size was measured twice weekly in 2 dimensions using a caliper, and the volume was expressed in cubic millimeters using the formula: V=0.5 L×W^2 where L is the longest diameter of the tumor and W is the diameter perpendicular to L. Body weight was recorded weekly.
Results were expressed as mean±SEM. Statistical analyses were performed using GraphPad Prism 6.0. One-way or 2-way ANOVA was applied to compare the statistical differences among multiple groups relative to the isotype control. P<0.05 was considered as significant difference.
In the MC38 colon carcinoma model, the average starting tumor size was approximately 60 mm^3 (range 41-92 mm^3; n=10 animals per group) (Table 6). At the end of study (Day 23 post tumor implantation), the average tumor volumes of isotype, anti-4-1BB alone, avelumab alone, and anti-4-1BB antibody/avelumab combination groups were 1177±252 mm^3, 1093±183 mm^3, 901±206 mm^3, and 530±190 mm^3, respectively (Table 6). The reduction in tumor size by the combination treatment was significant, compared to the isotype control (p<0.001) and 4-1BB alone groups (p<0.01), but not to the avelumab group (p>0.05) (Table 6).

B16F10 melanoma = assay: Subcutaneous B16F10 melanoma model, avelumab, anti-4-1BB and anti-OX40 (Example 6); format: in vivo, mouse; conditions: anti-OX40 3 mg/kg, anti-4-1BB 1 mg/kg, avelumab 20 mg/kg, ip, 3 doses 3 to 4 days apart, C57BL/6 mice
Method: as §1, with “Two murine models were used to evaluate the therapeutic efficacy of combinatorial treatment of anti-OX40 antibody, anti-4-1 BB and Avelumab. Six” for “Six”, “C57BL/6 mice or Balb/C” for “C57BL/6”
as §2, with “(CO2). Cells” for “(CO2), and IMPACT-tested for pathogens at Research Animal Diagnostic Laboratory (RADIL) (Columbia, Mo.). Pathogen-free cells”
Therapeutic mouse anti-OX40 antibodies with either the mIgG1 or the mIgG2a isotype (anti-OX40 mIgG1 and anti-OX40 mIgG2a, respectively) were derived from parental clone OX86 in house. Therapeutic mouse anti-mouse 4-1BB antibody (mouse immunoglobulin G1 [mIgG1]), derived from the parental clone MAB9371 (R&D Systems), was prepared in-house. Avelumab was provided by Merck Serono. Isotype control mIgG1 (clone: MOPC-21) and mIgG2a (C1.18.4) was purchased from BioXcell. Human IgG1 was prepared in-house. Anti-OX40 antibody, anti-4-1BB antibody, and avelumab were dosed at 3 mg/kg, 1 mg/kg and 20 mg/kg in the B16F10 model and 1 mg/kg, 1 mg/kg and 10 mg/kg in the MC38 model, respectively, in phosphate buffered saline (PBS) (Life Technologies), and dosed at 0.2 mL per mouse intraperitoneally (ip) for 3 doses 3 to 4 days apart.
as §3, with “with 0.3×10^6” for “with 0.2×10^6”, “B16F10 cells in 0.1 mL of PBS. Balb/C mice were inoculated subcutaneously at the right flank with” for “B16F10 or”, “of PBS.” for “of serum-free DMEM.”, “was calculated” for “was expressed”
Results are summarized in Table 9 (B16F10 melanoma) and Table 10 (MC38 colon carcinoma) below (mean tumor size±SEM). Statistical analyses were performed using GraphPad Prism 6.0. 2-way ANOVA was applied to compare the statistical differences among multiple groups relative to the isotype control or other treatment groups. P<0.05 was considered as significant difference. Tumor measurements are in mm^3.

## Avelumab: fully human mAb of the IgG1 isotype that specifically targets and blocks PD-L1
MC38 colon carcinoma; Day 7 post tumor implantation (starting tumor size)
  Tumor Measurements of Subcutaneous MC38 Colon Carcinoma, Mean tumor volume: 63 mm^3
MC38 colon carcinoma; Day 10 post tumor implantation
  Tumor Measurements of Subcutaneous MC38 Colon Carcinoma, Mean tumor volume: 127 mm^3
MC38 colon carcinoma; Day 14 post tumor implantation
  Tumor Measurements of Subcutaneous MC38 Colon Carcinoma, Mean tumor volume: 254 mm^3
MC38 colon carcinoma; Day 16 post tumor implantation
  Tumor Measurements of Subcutaneous MC38 Colon Carcinoma, Mean tumor volume: 384 mm^3
MC38 colon carcinoma; Day 18 post tumor implantation
  Tumor Measurements of Subcutaneous MC38 Colon Carcinoma, Mean tumor volume: 523 mm^3
MC38 colon carcinoma; Day 21 post tumor implantation
  Tumor Measurements of Subcutaneous MC38 Colon Carcinoma, Mean tumor volume: 714 mm^3
MC38 colon carcinoma; Day 23 post tumor implantation (end of study)
  Tumor Measurements of Subcutaneous MC38 Colon Carcinoma, Mean tumor volume: 901 mm^3
MC38 colon carcinoma; Day 23 post tumor implantation (end of study), listed as avelumab
  Tumor Measurements of Subcutaneous MC38 Colon Carcinoma, Mean tumor volume: 901±206 mm^3
B16F10 melanoma; Day 12 post-tumor inoculation (start of treatment)
  Mean Tumor Size: 77 mm^3
B16F10 melanoma; Day 15 post-tumor inoculation
  Mean Tumor Size: 236 mm^3
B16F10 melanoma; Day 18 post-tumor inoculation
  Mean Tumor Size: 396 mm^3
B16F10 melanoma; Day 22 post-tumor inoculation
  Mean Tumor Size: 750 mm^3
B16F10 melanoma; Day 25 post-tumor inoculation
  Mean Tumor Size: 1291 mm^3
B16F10 melanoma; Day 29 post-tumor inoculation
  Mean Tumor Size: 2159 mm^3
B16F10 melanoma; Day 32 post-tumor inoculation
  Mean Tumor Size: 2352 mm^3
B16F10 melanoma; Day 32 post-tumor inoculation, listed as avelumab
  Mean Tumor Size: 2352±264 mm^3

From patent publication US10869924B2, “PD-L1 antagonist combination treatments” (MERCK PATENT GMBH, priority 2015, dated 2020)
